Key:
S. epidermis = assay: Minimal Effective Concentration (MEC) assay; assay type: cell-based, Staphylococcus epidermidis
Procedure: (§1) Three antimicrobial polypeptides, which are variants of SEQ ID NO: 1, were tested for antimicrobial activity. A Minimal Effective Concentration assay (MEC, expressed as micrograms/mL) against different microorganisms was performed using the three plectasin mutants, Y40YR, N17R and Y25R following the protocol described in the book of Methods in Molecular Biology, Vol. 78, Antibacterial peptide protocol William M. Shafer, Human Press.

M. luteus = assay: Minimal Effective Concentration (MEC) assay; assay type: cell-based, Micrococcus luteus
Procedure: as §1

B. subtilis = assay: Minimal Effective Concentration (MEC) assay; assay type: cell-based, Bacillus subtilis
Procedure: as §1

Staphylococcus carnosus = assay: TAPS (Trans Acting Peptide System) assay, radial diffusion read-out; assay type: cell-based; set-up: key: classified as 4>3>2>1; whereas 4 is better than 1; classified as 4>3>2>1; classified as 4>3>2>1; wildtype activity corresponds to 1; conditions: peptide expressed in E. coli
Procedure: A range of antimicrobial polypeptides, which are variants of SEQ ID NO: 1, were tested in the TAPS assay. TAPS may be used to identify new or improved genes encoding peptides that can kill or inhibit the growth of target cells (see PCT application WO 2004/033715). The TAPS assay, an acronym for Trans Acting Peptide System, is based on having a sensitive host producing a peptide followed by screening for its activity in trans against an indicator strain. The advantage of this system is based on that the antimicrobial peptide is expressed in the Gram-negative bacterium E. coli and its antimicrobial activity can be monitored on different microbes including Gram-negatives, positives or fungi. Additionally, TAPS offers the possibility to produce correctly folded AMPs containing disulfide bonds in the host cells, thereby retaining their antimicrobial activities.
The TAPS approach requires first, that expression of the peptide is under control of an inducible promoter with tight regulation, because the host cells are sensitive to the peptide when producing it. Secondly, the produced peptide has to be released to the media so that it can interact with the target organism.
The TAPS screening can be carried out either in solid or liquid media. On solid media, a plasmid library is initially introduced into E. coli host cells. […] In the next step, the filter containing the colonies is transferred to LB growth medium containing inducer (0.1% arabinose) to permit peptide synthesis. Subsequently, the target strain, for example S. carnosus, is overlaid onto the plate and allowed to grow for 12-16 hours at 37° C. Finally, visual inspection of the host cells capable of reducing the proliferation of the target cells is performed and the nucleotide sequence encoding for the antimicrobial peptide is recovered from the host cells. DNA sequence analysis of the variants is obtained to elucidate the nature of the peptide.
As mentioned above, the TAPS screening can also be performed using liquid medium. This procedure requires the use of robotics to analyze large number of clones. In this system, the host E. coli origami cells are transformed with the plasmid library and plated out on LB medium+0.2% glucose+ampicillin (200 mg/L). Independent colonies are then inoculated into 96 or 384-well plates containing 200 micro-L of TB medium+ampicillin (200 mg/L) and cultured overnight at 37° C. These cultures are then replicated robotically and grown to exponential phase until inducer (0.1% arabinose) is added to trigger peptide synthesis. The next step consists in hydrolyzing the cells such that the peptide is released to the media by hot acid hydrolysis. This treatment consists on adding 1 M sodium Phosphate buffer pH 2.3 to obtain a final pH approximately of 2.3 and incubating the cultures overnight at 80° C. Next day, a 25 micro-L aliquot of the hydrolyzed cultures is used to perform an activity test against the desired target organisms. The activity test performed was a Radial Diffusion Assay (RDA) where an aliquot of the hydrolyzed cultures was added to the agarose media inoculated with the target strain, S. carnosus. […] Measurements of the diameter of the clearing zones were performed to quantify the potency of the antimicrobial activity of the peptides.
The antimicrobial activity (against Staphylococcus carnosus) of the tested plectasin variants, which was measured using the TAPS assay, is shown in table 3. The antimicrobial activity corresponds to the clearing zone size and has been classified as 4>3>2>1; whereas 4 is better than 1, and wildtype activity corresponds to 1.

[1] = system: panel of 6 different strains of Staphylococcus aureus; assay: Average MIC, NCCLS/CLSI guidelines using caMHB (Example 6); assay type: cell-based; conditions: average over 6 S. aureus strains, duplicate; MIC above 32 counted as 64; read after 18-24 hours at 37° C.
Outline: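 MICs were determined by broth dilution per NCCLS/CLSI in caMHB against six S. aureus strains (four MSSA, two MRSA), with peptides at 0.03–32 microgram/mL, read after 18-24 h at 37° C. Each was tested in duplicate and the two results averaged; MICs above 32 micrograms/mL were counted as 64.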

[2] = system: Staphylococcus aureus, ATCC 29737; assay: MIC, NCCLS/CLSI guidelines (Example 5), strain C; assay type: cell-based; conditions: relative to wildtype Plectasin; average of two independent experiments
Outline: (§2)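 Recombinant plectasin variants, expressed and purified; MIC per NCCLS/CLSI; n=2 independent expts, averaged; reported as category vs wild-type MIC (0 >100%, 1 80-100%, 2 50-80%, 3 <50%).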

[3] = system: Staphylococcus aureus, ATCC 25923; assay: MIC, NCCLS/CLSI guidelines (Example 5), strain B; assay type: cell-based; conditions: relative to wildtype Plectasin; average of two independent experiments
Outline: as §2

[4] = system: Staphylococcus aureus, MRSA ST5 (2001); assay: MIC, NCCLS/CLSI guidelines (Example 5), strain D; assay type: cell-based; conditions: relative to wildtype Plectasin; average of two independent experiments
Outline: (§3)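 Purified Plectasin variants were tested for MIC per NCCLS/CLSI guidelines; strains D and E are multi-resistant clinical human MRSA isolates. MICs average two independent experiments and are scored relative to wild-type Plectasin MIC: 0 >100%, 1 80-100%, 2 50-80%, 3 <50%.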

[5] = system: Staphylococcus aureus, MRSA ST80 (2003); assay: MIC, NCCLS/CLSI guidelines (Example 5), strain E; assay type: cell-based; conditions: relative to wildtype Plectasin; average of two independent experiments
Outline: as §3

Substance	MEC against S. epidermis (S. epidermis) [micrograms/mL]	MEC against M. luteus (M. luteus) [micrograms/mL]	MEC against B. subtilis (B. subtilis) [micrograms/mL]	Activity (antimicrobial activity, clearing zone size) (Staphylococcus carnosus)	Average MIC [1] [micrograms/mL]	Relative MIC, strain C [2]	Relative MIC, strain B [3]	Relative MIC, strain D [4]	Relative MIC, strain E [5]
GFGCNGPWDEDDMQCHNHCKSIKGYKGGYCAKGGFVCKCYR [Mutation Y40YR]	0.31	0.18	0.05	2					
GFGCNGPWDEDDMQCHRHCKSIKGYKGGYCAKGGFVCKCY [Mutation N17R]	0.59	0.32	0.07	2	4	3 (<50% of Plectasin wildtype MIC)	3 (<50% of Plectasin wildtype MIC)	3 (<50% of Plectasin wildtype MIC)	2 (50-80% of Plectasin wildtype MIC)
Y25R (GFGCNGPWDEDDMQCHNHCKSIKGRKGGYCAKGGFVCKCY) [Mutation Y25R]		1.40	0.04						

Source: patent US20100120690A1, “Polypeptides Having Antimicrobial Activity and Polynucleotides Encoding Same” (Novozymes Adenium Biotech A/S, priority 2005, published 2010)
